Test results published in US20240091254A1, “WNT AGONISTS FOR PREVENTION OF CANCER” (ACADEMISH MEDISCH CENTRUM, priority 2021, published 2024).

What was measured:
[1] = system: WT organoids; assay: Murine WT intestinal organoids incubated with conditioned medium or recombinant Wnt antagonists (expansion, clonogenicity); type: cell-based, mouse; conditions: for Expansion and clonogenicity of WT organoids: overexpression CM or recombinant protein: NOTUM 2 μg/mL, WIF1 5 μg/mL, DKK2 1 μg/mL
Method: Murine intestinal crypts were isolated from Lgr5-EGFP-IRES-Cre^ERT2, Lgr5-EGFP-IRES-Cre^ERT2;Ape/or Villin-Cre^ERT2;Apc^fl/fl mice as described by Sato et al.^35. In short, intestines were removed from the mouse and washed thoroughly with ice-cold PBS. Next, the intestine was opened longitudinally and the villi were gently scraped off by a glass cover slide. The intestine was cut into pieces of 5×5 mm and incubated in 2 mM EDTA solution for 30 min. at 4° C. After removal of the EDTA, the crypts were resuspended in ice-cold 1% FCS in PBS by vigorously shaking the tube and passing the supernatant through a 70 µm strainer. Isolated crypts were resuspended in Matrigel® (Corning) and seeded in pre-heated 24-well plates, supplemented with basal organoid medium consisting of advanced DMEM/F12 medium (Gibco) containing 100× N2 and 50× B27 supplements, 100× Glutamax, 5 mM HEPES, 1 mM N-acetyl-L-cysteine (Sigma), and 100× antibiotic/antimycotic (all Gibco). The basal organoid medium was freshly supplemented with the following growth factors: mouse EGF 50 ng/ml (TEBU-BIO), R-spondin (conditioned medium), Noggin (conditioned medium). The first two days after crypt isolation CHIR99021 (Axon Medchem) and ROCK inhibitor (Sigma) was added to the medium. Ctnnb1^S organoids expressing a constitutive active variant of β-catenin were generated as described by Adam et al.^36. For in vitro recombination of loxP flanked alleles, 1 μM 40H-Tamoxifen (Sigma) was added to the medium. Recombination of the Apc gene was validated by digital droplet PCR (Bio-Rad) using EvaGreen® Supermix (Bio-Rad). Lgr5-EGFP-IRES-Cre^ERT2 organoids, referred to as wild type (WT) organoids, were stably transduced with a red fluorescent mCherry construct (LeGO-C2, Addgene #27399). The in vitro recombined Lgr5-EGFP-IRES-Cre^ERT2;Apc^fl/fl, referred to as Apc^−/−, were stably transduced with a green fluorescent Venus construct (LeGO-V2, Addgene #27340). During competition assays, organoids were plated in equal numbers in 24-well plates and full wells were scanned over time by the EVOS FL Cell Imaging System (Thermo Scientific). Conditioned medium (CM) was taken from 2-3 day old WT or Apc^−/− organoid cultures and freshly supplemented with growth factors R-spondin, Noggin and mEGF. During the competition assays the medium (normal and conditioned) was replaced every other day to minimize effects of medium depletion. To assess the effect of medium depletion, CM was 10× concentrated using 10 kDa Amicon® centrifugal filters (Millipore) and added to fresh ENR medium as 1:10. […] Recombinant proteins NOTUM (2 μg/mL, R&D, 9150-NO-050), WIF1 (5 μg/mL, R&D, 135-WF-050) and DKK2 (1 μg/mL, R&D, 2435-DKB-010) were freshly added to the culture medium, medium was refreshed every other day.

[2] = system: Wnt pathway (TOP-GFP reporter); assay: TOP-GFP Wnt reporter assay in MEFs; type: cell-based, mouse
Method: Mouse embryonic fibroblasts (MEFs, ATCC) and HEK293T (ATCC) cells were both cultured in Dulbecco's Modified Eagle's Medium (DMEM) supplemented with 10% fetal calf serum (FCS), 1% Glutamine, and antibiotic penicillin and streptomycin. Cells were maintained at 37° C. in humidified air containing 5% CO2. All cell lines were routinely checked for mycoplasm contamination, no cell line authentication was performed.
Mouse embryonic fibroblasts (MEFs) were cultured in Dulbecco's Modified Eagle's Medium (DMEM) supplemented with 10% fetal calf serum (FCS), 1% Glutamine, and antibiotic penicillin and streptomycin. MEFs were stably transduced with Wnt reporter TOP-GFP (Addgene plasmid #35491). For TOP-GFP assays, cells were stimulated with Wnt3A conditioned medium for 24 hours after which GFP positivity was measured by flow cytometry.

Cc1c[nH]c(-c2cnc(NCCNc3ccc(C#N)cn3)nc2-c2ccc(Cl)cc2Cl)n1 [CHIR99021]
Resistance to Apc-/- CM induced reduction in proliferation and clonogenicity ([1]; WT organoids, Apc-/- CM, 2.5 μM CHIR): resistant to the Apc^−/− CM induced reduction in proliferation and clonogenicity | Effect on Apc-/- CM reduction of Wnt3a mediated Wnt activation (TOP-GFP) ([2]; MEFs, TOP-GFP reporter, 2.5 μM CHIR99021): completely abrogated this effect

O=C([O-])[O-].[Li+].[Li+] [Li2CO3, lithium carbonate]
Wnt signalling activation in Wnt reporter assay, Li2CO3 compared with LiCl ([2]; comparable concentrations (5 or 10 mM)): activated the same amount of Wnt signalling

Cn1c(=O)c2c(ncn2C)n(C)c1=O [caffeine]
Clonogenic capacity of wild type intestinal organoids with Apc-mutant CM ([1]; Apc-mutant CM containing Notum, 200 μM caffeine): rescue in clonogenic capacity | Clonogenic capacity of organoids with CM of Apc-mutant, Notum KO organoids ([1]; Apc-mutant Notum KO CM, 200 μM caffeine): no effect | Rescue of Notum-mediated inhibition of Wnt signalling in Wnt reporter assay ([2]; 200 μM caffeine): can rescue inhibition of Wnt singalling in vitro

Wif1: Wnt antagonist Wnt inhibitory factor 1, as overexpression CM or recombinant protein
Expansion and clonogenicity of WT organoids [1]: ability to reduce expansion and clonogenicity of WT organoids

B1: Notum: Wnt antagonist Palmitoleoyl-Protein Carboxylesterase, as overexpression CM or recombinant protein (protein, UniProt Q6P988 20-496, looked up)
Palmitoleoyl-protein …: SEGRKTWRRRGQQPPPPPRTEAAPAAGQPVESFPLDFTAVEGNMDSFMAQVKSLAQSLYPCSAQQLNEDLRLHLLLNTSVTCNDGSPAGYYLKESRGSRRWLLFLEGGWYCFNRENCDSRYDTMRRLMSSRDWPRTRTGTGILSSQPEENPYWWNANMVFIPYCSSDVWSGASSKSEKNEYAFMGALIIQEVVRELLGRGLSGAKVLLLAGSSAGGTGVLLNVDRVAEQLEKLGYPAIQVRGLADSGWFLDNKQYRHTDCVDTITCAPTEAIRRGIRYWNGVVPERCRRQFQEGEEWNCFFGYKVYPTLRCPVFVVQWLFDEAQLTVDNVHLTGQPVQEGLRLYIQNLGRELRHTLKDVPASFAPACLSHEIIIRSHWTDVQVKGTSLPRALHCWDRSLHDSHKASKTPLKGCPVHLVDSCPWPHCNPSCPTVRDQFTGQEMNVAQFLMHMGFDMQTVAQPQGLEPSELLGMLSNGS
Expansion and clonogenicity of WT organoids [1]: ability to reduce expansion and clonogenicity of WT organoids

B2: Dkk2: Wnt antagonist Dickkopf-related protein 2, as overexpression CM or recombinant protein (protein, UniProt Q9UBU2 34-259, looked up)
Dickkopf-related protein 2: KLNSIKSSLGGETPGQAANRSAGMYQGLAFGGSKKGKNLGQAYPCSSDKECEVGRYCHSPHQGSSACMVCRRKKKRCHRDGMCCPSTRCNNGICIPVTESILTPHIPALDGTRHRDRNHGHYSNHDLGWQNLGRPHTKMSHIKGHEGDPCLRSSDCIEGFCCARHFWTKICKPVLHQGEVCTKQRKKGSHGLEIFQRCDCAKGLSCKVWKDATYSSKARLHVCQKI
Expansion and clonogenicity of WT organoids [1]: ability to reduce expansion and clonogenicity of WT organoids
